Laboratory results: ChEMBL document CHEMBL1201862, “PubChem BioAssay data set” (2004)
Calls of active or inactive are those of the source.

Experiments:
[1] = target: T1, Neuropeptide Y receptor type 1 (Homo sapiens, UniProt P25929); test: Fluorescence-based counterscreen for potentiators or agonists of NPY-Y2: cell-based high-throughput dose response assay for potentiators or agonists of NPY-Y1.; type: functional
T1 sequence (P25929 whole entry): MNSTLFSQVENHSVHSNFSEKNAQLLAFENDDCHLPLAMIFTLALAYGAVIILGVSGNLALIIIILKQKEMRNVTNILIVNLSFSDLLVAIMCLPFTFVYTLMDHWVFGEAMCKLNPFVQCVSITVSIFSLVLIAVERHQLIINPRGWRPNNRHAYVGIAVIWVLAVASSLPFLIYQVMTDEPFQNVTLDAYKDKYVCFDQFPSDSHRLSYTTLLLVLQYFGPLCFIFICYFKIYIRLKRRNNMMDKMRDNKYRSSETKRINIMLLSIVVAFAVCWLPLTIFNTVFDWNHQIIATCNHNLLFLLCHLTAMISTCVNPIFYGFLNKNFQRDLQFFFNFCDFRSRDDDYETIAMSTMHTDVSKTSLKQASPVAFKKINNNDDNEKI

[2] = target: T2, Neuropeptide Y receptor type 2 (Homo sapiens, UniProt P49146); test: Fluorescence-based cell-based high-throughput dose response assay for agonists of NPY-Y2. [Related pubchem assays: 1703 (Screening assay (CNGC inhibitors).), 1359 (Screening assay (NPY-Y2 potentiators or agonists).), 1304 (Screening assay (NPY-Y1 potentiators or agonists).), 1710 (Screening assay (NPY-Y2 agonists).), 1791 (Summary AID.)]; type: functional
T2 sequence (P49146 whole entry): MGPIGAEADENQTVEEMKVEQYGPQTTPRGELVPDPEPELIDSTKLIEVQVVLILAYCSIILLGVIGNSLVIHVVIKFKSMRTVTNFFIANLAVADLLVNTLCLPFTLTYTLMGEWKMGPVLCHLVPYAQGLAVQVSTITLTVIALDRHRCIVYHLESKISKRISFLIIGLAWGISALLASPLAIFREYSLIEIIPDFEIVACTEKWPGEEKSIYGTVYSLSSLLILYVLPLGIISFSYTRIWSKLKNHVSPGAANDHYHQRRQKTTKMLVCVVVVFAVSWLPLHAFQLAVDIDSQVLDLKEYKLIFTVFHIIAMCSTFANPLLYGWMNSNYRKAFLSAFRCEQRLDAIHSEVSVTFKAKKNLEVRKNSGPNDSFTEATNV

Streptokinase A = target: T3, Streptokinase A (Streptococcus pyogenes serotype M1, UniProt P10520); test: viability-normalized secreted streptokinase activity reduction – plasminogen activation absorbance, OD405, dose response (AID 1914); type: functional, Streptococcus pyogenes M1 GAS;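 also: secreted streptokinase activity via plasminogen activation per viability signal from cell pellet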
T3 sequence (P10520 whole entry): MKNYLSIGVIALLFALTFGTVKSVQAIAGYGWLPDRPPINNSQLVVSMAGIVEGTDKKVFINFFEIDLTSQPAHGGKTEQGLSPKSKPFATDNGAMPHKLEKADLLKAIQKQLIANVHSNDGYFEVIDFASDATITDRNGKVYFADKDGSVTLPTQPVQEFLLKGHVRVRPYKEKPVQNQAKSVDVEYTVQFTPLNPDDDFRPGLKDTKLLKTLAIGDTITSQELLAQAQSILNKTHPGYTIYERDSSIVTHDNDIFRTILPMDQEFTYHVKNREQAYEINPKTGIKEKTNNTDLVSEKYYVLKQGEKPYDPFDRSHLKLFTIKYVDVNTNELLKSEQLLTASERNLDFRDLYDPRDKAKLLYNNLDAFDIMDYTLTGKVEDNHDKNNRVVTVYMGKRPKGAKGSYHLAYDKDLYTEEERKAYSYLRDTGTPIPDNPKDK

[3] = target: T2, Neuropeptide Y receptor type 2; test: Fluorescence-based cell-based high-throughput dose response assay for potentiators or agonists of NPY-Y2. [Related pubchem assays: 1539 (Screening assay (NPY-Y2 potentiators or agonists).), 1703 (Screening assay (CNGC inhibitors).), 1359 (Screening assay (NPY-Y2 potentiators or agonists).), 1304 (Screening assay (NPY-Y1 potentiators or agonists).) …; type: functional
[4] = target: T1, Neuropeptide Y receptor type 1; test: Fluorescence-based counterscreen for agonists of NPY-Y2: cell-based high-throughput dose response assay for agonists of NPY-Y1.; type: functional
[5] = target: T4, Replicative DNA helicase DnaB (Mycobacterium tuberculosis, UniProt P9WMR3); test: DnaB intein splicing inhibitors, dose response, biochemical, cell-free fluorescence (AID 449749); type: functional
T4 sequence (P9WMR3 whole entry): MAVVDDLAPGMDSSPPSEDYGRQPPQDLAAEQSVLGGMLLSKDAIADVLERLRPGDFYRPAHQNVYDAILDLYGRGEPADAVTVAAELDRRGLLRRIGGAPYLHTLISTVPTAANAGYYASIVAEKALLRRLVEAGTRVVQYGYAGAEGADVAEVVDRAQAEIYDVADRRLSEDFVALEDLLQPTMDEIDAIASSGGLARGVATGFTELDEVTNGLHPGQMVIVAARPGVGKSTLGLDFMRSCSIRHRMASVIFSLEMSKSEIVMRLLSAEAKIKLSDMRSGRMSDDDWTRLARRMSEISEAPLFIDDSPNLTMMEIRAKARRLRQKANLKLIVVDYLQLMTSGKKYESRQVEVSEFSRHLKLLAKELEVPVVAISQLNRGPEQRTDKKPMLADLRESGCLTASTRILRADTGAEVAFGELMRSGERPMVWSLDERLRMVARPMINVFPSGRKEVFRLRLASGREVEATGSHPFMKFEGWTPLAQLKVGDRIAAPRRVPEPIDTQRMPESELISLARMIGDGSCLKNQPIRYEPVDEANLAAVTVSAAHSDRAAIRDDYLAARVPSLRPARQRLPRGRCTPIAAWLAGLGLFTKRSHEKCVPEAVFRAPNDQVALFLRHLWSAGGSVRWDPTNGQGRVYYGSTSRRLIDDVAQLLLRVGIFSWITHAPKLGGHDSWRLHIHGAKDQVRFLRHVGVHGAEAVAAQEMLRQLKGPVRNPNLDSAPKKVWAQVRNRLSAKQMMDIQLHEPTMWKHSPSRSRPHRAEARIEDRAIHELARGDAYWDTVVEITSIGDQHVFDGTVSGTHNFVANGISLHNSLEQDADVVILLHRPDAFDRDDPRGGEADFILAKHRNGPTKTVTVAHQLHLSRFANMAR

Protein RecA = target: T5, Protein RecA (Mycobacterium tuberculosis, UniProt P9WHJ3); test: Fluorescence Cell-Free Homogeneous Dose Retest to Identify Inhibitors of RecA-Intein Splicing Activity. [Related pubchem assays (depositor defined):AID2097, AID2223, AID489010, AID492950]; type: functional
T5 sequence (P9WHJ3 whole entry): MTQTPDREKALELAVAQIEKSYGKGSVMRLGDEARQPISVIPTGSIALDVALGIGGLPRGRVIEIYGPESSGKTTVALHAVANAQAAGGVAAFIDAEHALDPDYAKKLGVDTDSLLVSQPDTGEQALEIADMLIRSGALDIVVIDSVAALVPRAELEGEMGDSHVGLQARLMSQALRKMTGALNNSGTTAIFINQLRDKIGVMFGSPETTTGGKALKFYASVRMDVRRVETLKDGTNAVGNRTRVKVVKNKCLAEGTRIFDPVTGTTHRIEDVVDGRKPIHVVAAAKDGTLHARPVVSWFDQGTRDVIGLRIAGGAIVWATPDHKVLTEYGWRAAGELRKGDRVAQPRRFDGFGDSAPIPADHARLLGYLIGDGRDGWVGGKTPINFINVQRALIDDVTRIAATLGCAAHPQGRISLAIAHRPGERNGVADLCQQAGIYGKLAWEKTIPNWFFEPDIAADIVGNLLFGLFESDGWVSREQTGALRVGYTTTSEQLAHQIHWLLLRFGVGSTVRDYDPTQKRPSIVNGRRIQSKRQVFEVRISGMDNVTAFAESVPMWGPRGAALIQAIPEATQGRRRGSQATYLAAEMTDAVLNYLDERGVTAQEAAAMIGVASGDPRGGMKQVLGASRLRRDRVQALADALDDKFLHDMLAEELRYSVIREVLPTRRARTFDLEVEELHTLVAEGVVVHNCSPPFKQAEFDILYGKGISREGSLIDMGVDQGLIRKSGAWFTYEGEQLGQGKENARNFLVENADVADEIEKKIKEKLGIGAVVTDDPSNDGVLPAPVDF

[6] = target: Photoreceptor-specific nuclear receptor (Homo sapiens, UniProt Q9Y5X4); type: functional, cell-based;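 also: CHO-S cells with Gal4-NCOR and VP16-NR2E3 two-hybrid luciferase reporter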
[7] = target: Potassium voltage-gated channel subfamily KQT member 2 (Rattus norvegicus, UniProt O88943, W236L); test: potentiation of rat KCNQ2 current – cell-based, automated electrophysiology, mechanism study for KCNQ2 potentiator project, dose response (AID 2603); type: functional
Bcl-2-like protein 10 = Bcl-2-like protein 10 (Homo sapiens, UniProt Q9HD36); test: Bcl-B/TR3 peptide binding disruption – biochemical, fluorescence polarization, FITC-TR3 peptide, selectivity assay for Bfl-1 inhibitor project, primary screen (AID 748);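 also: fluorescence polarization from a fluorescein-labelled TR3 peptide binding purified Bcl-B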
Estrogen receptor beta = Estrogen receptor beta (Homo sapiens, UniProt Q92731); test: blockers of SRC-3 recruitment to ERβ – biochemical, ELISA, streptavidin-HRP readout, orthogonal assay, confirmation (AID 1060)
[8] = target: 5-hydroxytryptamine receptor 1E (Homo sapiens, UniProt P28566); test: Counterscreen assay for S1P3 antagonists: Dose response cell-based high throughput screening assay to identify antagonists of the 5-Hydroxytryptamine Receptor Subtype 1E (5HT1E). [Related pubchem assays: 1429, 485 ]; type: functional
[9] = Trypanosoma cruzi growth suppression in host cells – NIH3T3 host cells, beta-gal luminescence, confirmation (AID 2044); type: functional, cell-based;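 also: intracellular parasites grown in NIH/3T3 mouse fibroblasts as host cells; luminescent beta-galactosidase reporter signal from transgenic T. cruzi replicating inside host cells; inhibitors lower the luminescence signal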
[10] = NIH3T3 cell viability loss – ATP luminescence, mouse fibroblasts, counter-screen, dose response (AID 2010); type: functional, cell-based;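 also: cells exposed to compound for about 90 hours before reading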
[11] = target: Sphingosine 1-phosphate receptor 3 (Homo sapiens, UniProt Q99500); test: Dose response cell-based high throughput screening assay for antagonists of the Sphingosine 1-Phosphate Receptor 3 (S1P3). [Related pubchem assays: 1429, 485 ]; type: functional
Mucolipin-3 = Mucolipin-3 (Homo sapiens, UniProt Q8TDD5); test: Dose response cell-based high-throughput screening assay for agonists of the transient receptor potential channel ML3 (TRPML3). [Related pubchem assays: 1526, 1424, 1448 ]; type: functional
Ion channel NompC = Ion channel NompC (Danio rerio, UniProt Q7T1G6); test: Fluorescence counterscreen assay for TRPML3 agonists: dose response cell-based high-throughput screening assay to identify agonists of the transient receptor potential channel N1 (TRPN1). [Related pubchem assays: 1526, 1424, 1448 ]; type: functional
[12] = NIH-3T3 fibroblast cytotoxicity, dose response, cytotoxicity control, cell-based, fluorescence, Alamar Blue, secondary assay (AID 2327); type: functional;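 also: NIH-3T3 mouse fibroblasts cultured with fluconazole at 8 µg/mL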
[13] = target: Induced myeloid leukemia cell differentiation protein Mcl-1 (Homo sapiens, UniProt Q07820); test: blockers of MCL1 binding to BIM peptide – biochemical, fluorescence polarization, BIM-BH3 peptide, 1536-well, dose response (AID 2217)
Bcl-2-like protein 1 = Bcl-2-like protein 1 (Homo sapiens, UniProt Q07817); test: blockers of BCLXL peptide binding – biochemical, fluorescence polarization, 1536-well, selectivity assay for MCL1 inhibitor project, dose response (AID 2218)
[14] = target: T6, Microphthalmia-associated transcription factor (Homo sapiens, UniProt O75030); test: reducers of TRPM1 reporter luminescence, concentration series – cell-based, SK-MEL-5, cherry-picked, set 3, MITF inhibitor project, dose response (AID 493073); type: functional;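 also: SK-MEL-5 melanoma cells with luciferase driven by the MITF target TRPM1 promoter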
T6 sequence (O75030 whole entry): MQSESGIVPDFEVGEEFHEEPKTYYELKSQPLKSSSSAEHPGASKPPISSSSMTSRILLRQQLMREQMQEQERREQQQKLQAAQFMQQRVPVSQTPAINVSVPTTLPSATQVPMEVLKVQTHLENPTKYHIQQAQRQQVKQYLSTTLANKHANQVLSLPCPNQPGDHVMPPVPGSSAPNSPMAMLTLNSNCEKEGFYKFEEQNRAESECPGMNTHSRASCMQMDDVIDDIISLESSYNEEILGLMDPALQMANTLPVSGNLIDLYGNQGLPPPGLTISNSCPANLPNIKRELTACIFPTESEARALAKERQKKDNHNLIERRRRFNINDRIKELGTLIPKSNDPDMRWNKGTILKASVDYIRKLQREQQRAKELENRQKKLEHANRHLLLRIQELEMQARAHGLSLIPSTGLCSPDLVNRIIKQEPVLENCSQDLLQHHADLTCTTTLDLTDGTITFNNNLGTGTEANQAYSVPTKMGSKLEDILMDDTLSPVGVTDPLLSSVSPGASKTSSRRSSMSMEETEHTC

[15] = target: T7, Carboxy-terminal domain RNA polymerase II polypeptide A small phosphatase 1 (Homo sapiens, UniProt Q9GZU7); test: CTDSP1 inhibitors, concentration-response, biochemical, absorbance readout, ultra-high-throughput screen actives (AID 540297); type: functional
T7 sequence (Q9GZU7 whole entry): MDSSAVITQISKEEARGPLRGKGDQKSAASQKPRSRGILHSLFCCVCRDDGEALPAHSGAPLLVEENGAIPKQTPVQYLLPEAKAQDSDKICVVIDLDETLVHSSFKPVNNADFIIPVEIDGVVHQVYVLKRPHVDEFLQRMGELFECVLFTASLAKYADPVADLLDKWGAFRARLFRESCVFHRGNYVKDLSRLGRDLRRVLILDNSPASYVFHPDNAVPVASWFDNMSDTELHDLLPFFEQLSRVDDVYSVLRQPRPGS

Estrogen receptor beta, sequence (Q92731 whole entry): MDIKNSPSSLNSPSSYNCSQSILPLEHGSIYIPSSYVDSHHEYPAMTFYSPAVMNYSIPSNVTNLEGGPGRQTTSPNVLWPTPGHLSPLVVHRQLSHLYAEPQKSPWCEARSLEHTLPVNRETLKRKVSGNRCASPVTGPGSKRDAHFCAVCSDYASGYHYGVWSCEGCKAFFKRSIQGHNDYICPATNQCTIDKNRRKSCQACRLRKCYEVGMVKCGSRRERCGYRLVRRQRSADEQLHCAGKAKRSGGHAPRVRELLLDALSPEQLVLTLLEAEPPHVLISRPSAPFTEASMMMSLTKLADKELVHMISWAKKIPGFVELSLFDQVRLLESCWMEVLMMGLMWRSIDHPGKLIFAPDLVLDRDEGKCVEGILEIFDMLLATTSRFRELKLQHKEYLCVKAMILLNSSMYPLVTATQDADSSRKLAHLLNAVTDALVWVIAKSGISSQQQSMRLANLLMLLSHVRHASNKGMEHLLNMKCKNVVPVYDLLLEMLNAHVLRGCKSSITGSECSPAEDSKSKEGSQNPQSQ
Induced myeloid leukemia cell differentiation protein Mcl-1, sequence (Q07820 whole entry): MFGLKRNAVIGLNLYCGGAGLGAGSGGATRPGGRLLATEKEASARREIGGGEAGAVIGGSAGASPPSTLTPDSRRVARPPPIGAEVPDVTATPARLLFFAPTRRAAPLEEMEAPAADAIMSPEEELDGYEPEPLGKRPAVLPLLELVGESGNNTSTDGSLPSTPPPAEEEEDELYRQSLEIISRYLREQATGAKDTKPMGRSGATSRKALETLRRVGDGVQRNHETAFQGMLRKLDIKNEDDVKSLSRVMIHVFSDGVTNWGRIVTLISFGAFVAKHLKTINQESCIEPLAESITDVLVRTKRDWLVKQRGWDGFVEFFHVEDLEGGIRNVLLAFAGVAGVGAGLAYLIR
Mucolipin-3, sequence (Q8TDD5 whole entry): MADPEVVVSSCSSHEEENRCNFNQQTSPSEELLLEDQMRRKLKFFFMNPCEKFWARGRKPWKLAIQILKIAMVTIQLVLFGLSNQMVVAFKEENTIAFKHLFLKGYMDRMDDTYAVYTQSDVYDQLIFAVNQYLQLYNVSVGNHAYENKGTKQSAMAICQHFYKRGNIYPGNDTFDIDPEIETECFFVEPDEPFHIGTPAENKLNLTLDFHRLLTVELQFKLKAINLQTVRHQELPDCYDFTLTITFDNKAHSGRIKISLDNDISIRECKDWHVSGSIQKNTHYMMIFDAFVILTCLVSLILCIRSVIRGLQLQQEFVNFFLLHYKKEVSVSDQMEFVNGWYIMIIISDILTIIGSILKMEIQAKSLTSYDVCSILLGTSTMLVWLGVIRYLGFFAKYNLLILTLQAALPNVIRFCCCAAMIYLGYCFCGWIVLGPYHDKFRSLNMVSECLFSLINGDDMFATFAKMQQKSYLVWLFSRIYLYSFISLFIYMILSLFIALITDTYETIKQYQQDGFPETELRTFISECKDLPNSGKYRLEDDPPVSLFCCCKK
Ion channel NompC, sequence (Q7T1G6 whole entry): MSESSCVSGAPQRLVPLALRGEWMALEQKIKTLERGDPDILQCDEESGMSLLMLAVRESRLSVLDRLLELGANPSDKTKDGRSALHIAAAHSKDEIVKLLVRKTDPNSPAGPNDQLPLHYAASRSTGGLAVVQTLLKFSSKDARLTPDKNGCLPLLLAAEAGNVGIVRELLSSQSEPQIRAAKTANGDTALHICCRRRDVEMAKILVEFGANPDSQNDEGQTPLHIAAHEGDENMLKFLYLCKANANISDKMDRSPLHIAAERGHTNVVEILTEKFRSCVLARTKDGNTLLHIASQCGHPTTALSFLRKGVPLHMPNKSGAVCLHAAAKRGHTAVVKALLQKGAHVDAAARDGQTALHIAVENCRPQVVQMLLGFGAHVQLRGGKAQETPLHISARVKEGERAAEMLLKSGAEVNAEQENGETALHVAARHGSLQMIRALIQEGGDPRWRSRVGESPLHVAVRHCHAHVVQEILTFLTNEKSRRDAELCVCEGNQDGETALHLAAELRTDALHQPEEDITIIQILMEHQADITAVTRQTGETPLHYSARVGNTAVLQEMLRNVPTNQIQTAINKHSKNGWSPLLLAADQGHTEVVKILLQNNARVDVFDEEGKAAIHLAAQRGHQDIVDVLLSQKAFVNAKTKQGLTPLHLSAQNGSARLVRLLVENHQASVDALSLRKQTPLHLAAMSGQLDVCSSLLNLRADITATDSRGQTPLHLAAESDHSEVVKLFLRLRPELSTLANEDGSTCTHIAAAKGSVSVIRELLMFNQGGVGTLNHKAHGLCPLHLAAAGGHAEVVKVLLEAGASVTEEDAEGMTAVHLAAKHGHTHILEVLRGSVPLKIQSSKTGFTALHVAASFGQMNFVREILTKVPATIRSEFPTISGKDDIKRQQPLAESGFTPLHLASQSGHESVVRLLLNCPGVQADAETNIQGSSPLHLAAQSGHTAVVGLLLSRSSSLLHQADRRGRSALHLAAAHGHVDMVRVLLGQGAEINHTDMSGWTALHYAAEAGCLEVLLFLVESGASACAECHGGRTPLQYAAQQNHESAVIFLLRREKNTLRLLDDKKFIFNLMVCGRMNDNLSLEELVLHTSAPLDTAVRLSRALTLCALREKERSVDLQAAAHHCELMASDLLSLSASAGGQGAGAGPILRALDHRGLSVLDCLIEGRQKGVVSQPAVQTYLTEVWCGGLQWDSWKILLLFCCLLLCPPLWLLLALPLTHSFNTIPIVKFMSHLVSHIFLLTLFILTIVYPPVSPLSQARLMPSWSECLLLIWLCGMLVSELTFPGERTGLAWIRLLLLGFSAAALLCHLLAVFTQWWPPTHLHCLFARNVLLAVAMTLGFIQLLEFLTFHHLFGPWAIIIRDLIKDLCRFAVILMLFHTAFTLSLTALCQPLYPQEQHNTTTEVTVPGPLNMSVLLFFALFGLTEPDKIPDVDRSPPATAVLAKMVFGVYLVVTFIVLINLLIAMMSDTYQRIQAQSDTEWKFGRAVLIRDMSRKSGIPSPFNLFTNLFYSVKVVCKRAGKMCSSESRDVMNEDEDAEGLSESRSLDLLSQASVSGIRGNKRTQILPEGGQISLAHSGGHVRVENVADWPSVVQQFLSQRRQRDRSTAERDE
Sphingosine 1-phosphate receptor 3, sequence (Q99500 whole entry): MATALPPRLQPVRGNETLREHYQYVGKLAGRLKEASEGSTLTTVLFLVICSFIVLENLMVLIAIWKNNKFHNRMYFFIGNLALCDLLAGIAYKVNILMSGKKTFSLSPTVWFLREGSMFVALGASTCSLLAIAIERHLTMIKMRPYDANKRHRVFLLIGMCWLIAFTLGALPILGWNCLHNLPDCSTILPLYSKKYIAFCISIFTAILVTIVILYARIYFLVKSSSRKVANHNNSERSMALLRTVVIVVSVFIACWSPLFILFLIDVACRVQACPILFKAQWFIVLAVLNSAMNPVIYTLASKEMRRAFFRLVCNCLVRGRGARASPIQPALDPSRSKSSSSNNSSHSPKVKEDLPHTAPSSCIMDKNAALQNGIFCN
Photoreceptor-specific nuclear receptor, sequence (Q9Y5X4 whole entry, the tested form may be a part): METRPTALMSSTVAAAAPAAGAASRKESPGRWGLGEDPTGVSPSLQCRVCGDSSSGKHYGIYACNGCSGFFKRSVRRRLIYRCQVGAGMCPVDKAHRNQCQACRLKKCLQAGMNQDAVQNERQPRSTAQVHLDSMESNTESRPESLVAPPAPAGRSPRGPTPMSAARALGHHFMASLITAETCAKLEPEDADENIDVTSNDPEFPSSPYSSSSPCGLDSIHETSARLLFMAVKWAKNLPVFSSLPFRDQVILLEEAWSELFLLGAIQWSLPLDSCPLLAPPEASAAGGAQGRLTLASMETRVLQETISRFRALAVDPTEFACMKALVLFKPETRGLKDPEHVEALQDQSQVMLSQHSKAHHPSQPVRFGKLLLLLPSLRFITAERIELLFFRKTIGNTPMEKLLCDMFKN
Bcl-2-like protein 10, sequence (Q9HD36 whole entry): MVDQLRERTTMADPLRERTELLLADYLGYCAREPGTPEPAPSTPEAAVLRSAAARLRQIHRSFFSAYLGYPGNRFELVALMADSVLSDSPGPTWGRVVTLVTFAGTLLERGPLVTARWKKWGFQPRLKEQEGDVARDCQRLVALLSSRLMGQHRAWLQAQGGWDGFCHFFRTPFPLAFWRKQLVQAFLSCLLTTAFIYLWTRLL
Potassium voltage-gated channel subfamily KQT member 2, sequence (O88943 whole entry W236L): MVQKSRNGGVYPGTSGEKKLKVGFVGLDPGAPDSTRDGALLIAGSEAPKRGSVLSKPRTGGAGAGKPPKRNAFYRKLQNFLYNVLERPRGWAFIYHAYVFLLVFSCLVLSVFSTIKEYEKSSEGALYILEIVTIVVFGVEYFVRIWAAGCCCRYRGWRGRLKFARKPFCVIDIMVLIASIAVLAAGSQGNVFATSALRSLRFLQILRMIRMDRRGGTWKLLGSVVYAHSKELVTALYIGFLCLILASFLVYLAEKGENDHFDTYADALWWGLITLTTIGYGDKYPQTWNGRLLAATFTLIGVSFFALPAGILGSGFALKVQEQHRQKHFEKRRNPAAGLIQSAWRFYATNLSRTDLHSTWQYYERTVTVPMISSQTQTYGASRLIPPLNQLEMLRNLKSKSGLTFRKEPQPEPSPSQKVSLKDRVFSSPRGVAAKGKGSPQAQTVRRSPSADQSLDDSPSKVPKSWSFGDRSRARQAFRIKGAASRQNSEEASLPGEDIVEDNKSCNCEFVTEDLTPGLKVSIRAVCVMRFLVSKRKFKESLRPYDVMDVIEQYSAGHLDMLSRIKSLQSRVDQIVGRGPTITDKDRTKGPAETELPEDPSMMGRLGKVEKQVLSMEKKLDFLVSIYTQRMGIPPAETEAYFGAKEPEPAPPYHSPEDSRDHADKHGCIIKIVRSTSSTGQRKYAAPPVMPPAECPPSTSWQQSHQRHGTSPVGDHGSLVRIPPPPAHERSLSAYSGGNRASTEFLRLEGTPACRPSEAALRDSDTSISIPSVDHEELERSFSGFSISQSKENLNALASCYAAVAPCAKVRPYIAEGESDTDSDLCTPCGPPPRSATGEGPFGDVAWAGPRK

Compound: O=[N+]([O-])c1cc(C(F)(F)F)cc([N+](=O)[O-])c1NCCNC(=S)Nc1ccc(Cl)c(Cl)c1
- EC50 [1]: 11.2 µM (not active)
- EC50 [2]: 8.24 µM (active)
- EC50 (Streptokinase A): 7.06 µM (inconclusive)
- EC50 [3]: 8.69 µM (active)
- EC50 [4]: 6 µM (active)
- AC50 [5]: 4.92 µM (active)
- EC50 (Protein RecA): 303 µM (active)
- IC50 [6]: 7.03 µM (active)

Compound: CC1=C(C(=O)OC2CCCCCCC2)C(c2cccc(O)c2)NC(=O)N1 (centres undefined)
- EC50 [7]: 537 µM (active)

Compound: O=C(c1cnccn1)N1CCc2ccccc21
- IC50 (Bcl-2-like protein 10): 23.7 µM (active)
- IC50 (Estrogen receptor beta): < 0.023 µM (not active)

Compound: O=C(Nc1ccc2ccccc2c1)C(c1ccccc1)C1CCCC1 (centres undefined)
- IC50 [8]: 1.85 µM (active)
- EC50 [9]: 2.42 µM (active)
- EC50 [10]: > 30 µM (not active)
- IC50 [11]: 2.1 µM (active)

Compound: Cc1onc(-c2ccc(Cl)cc2)c1-c1ccnn1S(=O)(=O)c1cccc(C(F)(F)F)c1
- EC50 (Mucolipin-3): 4.26 µM (active)
- EC50 (Ion channel NompC): > 29.9 µM (not active)

Compound: Cc1nc2ccccn2c1C(=O)N/N=C/c1ccc([N+](=O)[O-])o1
- EC50 [12]: > 160 µM (inactive)
- EC50 [9]: 0.139 µM (active)
- IC50 [13]: 13.2 µM (not active)
- EC50 [10]: 10.9 µM (active)
- IC50 (Bcl-2-like protein 1): 55.2 µM (not active)
- AC50 [14]: 8.03 µM (active)
- IC50 [15]: 5.79 µM (active)
